The values below come from US9266921B2, “PGC-1α-modulating peptides” (Lipotec, S.A., priority 2011, dated 2016).

One assay relates to human PGC-1α promoter. In words: Modulation of the human PGC-1α promoter activity (luciferase reporter, Hep G2). It is filed as cell-based. The settings on record: Hep G2 transfected with luciferase under human PGC-1α promoter; peptide 0.5 mg/mL, 24 hours; normalized to carrier = 100%. On the procedure: The modulation capacity of the promoter of human PGC-1α is evaluated by the peptides in the invention in the hepatocellular Hep G2 carcinoma cell line transfected with the luciferase gene under the regulation of the human PGC-1α promoter. The cells are seeded at a density of 20,000 cells/25 cm^2 plate) and incubated for 24 hours in RPMI-1640 complete medium, after which the peptides of the invention are added at 0.5 mg/mL and are incubated for another 24 hours. The RPMI-1640 complete medium (carrier) is used as a negative control. The measurement of the promoter's activity is carried out using the Steady-Glo® Luciferase Assay System (PROMEGA) kit following the manufacturer's instructions. The luminescence values are read on a luminometer […] and the activity of the promoter is determined, which is normalized with regards to the values of the negative control.
For orientation: A reporter such as luciferase makes a cellular process visible.

Assay [1] deals with subcutaneous human pre-adipocytes. Nature of the assay: Accumulation of lipids in subcutaneous human pre-adipocytes (AdipoRed). Format: cell-based. The settings on record: peptide 0.1 mg/mL in PDM-2, 10 days, PGM-2 = 0%, PDM-2 = 100%. On the procedure: The levels of accumulation of lipids in subcutaneous human pre-adipocytes were quantified using the AdipoRed™ (Lonza) reagent. 100,000 cells were cultivated per well in PGM™-2 medium at a final volume of 100 μL. After 24 hours, the differentiation from pre-adipocytes to mature adipocytes was induced changing the medium to PDM-2 in the presence of the different peptides at 0.1 mg/mL. After 10 days of treatment with the peptides in differentiation medium, the quantity of intracellular lipids was evaluated using the AdipoRed™ reagent following the manufacturer's instructions measuring the fluorescence of the samples (length of the excitation wave 485 nm and emission 535 nm) after adding the AdipoRed™ reagent. The fluorescence values were corrected with regards to the basal fluorescence and were normalized with regards to the maximum differentiation controls (PDM-2 medium, maximum accumulation of lipids) and minimum differentiation (PGM™-2 medium, minimum accumulation of lipids).

Take “Ac-L-Ser-L-Ile-L-Val-L-Val-Gly-L-Val-NH2 (Ac-SIVVGV-NH2) [Ac-SEQ ID NO. 46-NH2]”: the “Activity of the PGC-1α promoter (%)” value with human PGC-1α promoter was 78%. Further, the “% Accumulation of intracellular lipids” value in assay [1] is 38%.

For “Ac-L-His-L-Ile-L-Val-L-Val-L-Ala-L-Thr-NH2 (Ac-HIVVAT-NH2) [Ac-SEQ ID NO. 6-NH2]”, the “Activity of the PGC-1α promoter (%)” value in the assay on human PGC-1α promoter was 72%. On to “Ac-L-Ser-L-Ile-L-Val-L-Val-L-Arg-L-Thr-NH2 (Ac-SIVVRT-NH2) [Ac-SEQ ID NO. 15-NH2]”, for which, in the assay with human PGC-1α promoter, the “Activity of the PGC-1α promoter (%)” value is listed as 150%. For “Ac-L-Ser-L-Val-L-Val-L-Val-L-Ala-L-Val-NH2 (Ac-SVVVAV-NH2) [Ac-SEQ ID NO. 32-NH2]”, in the assay with human PGC-1α promoter, the “Activity of the PGC-1α promoter (%)” value is 82%. In the case of “Ac-L-Ser-L-Val-L-Tyr-L-Val-L-Arg-L-Thr-NH2 (Ac-SVYVRT-NH2) [Ac-SEQ ID NO. 13-NH2]”, in the assay with human PGC-1α promoter, the “Activity of the PGC-1α promoter (%)” value came out at 131%. The “% Accumulation of intracellular lipids” value in assay [1] came to 79%. On to “Ac-L-Ser-L-Val-L-Val-L-Val-L-Arg-L-Val-NH2 (Ac-SVVVRV-NH2) [Ac-SEQ ID NO. 40-NH2]”, for which the “Activity of the PGC-1α promoter (%)” value with human PGC-1α promoter is on record as 141%. Turning to “Ac-L-Ser-L-Ile-L-Val-L-Val-Gly-L-Thr-NH2 (Ac-SIVVGT-NH2) [Ac-SEQ ID NO. 22-NH2]”, in the assay on human PGC-1α promoter, the “Activity of the PGC-1α promoter (%)” value amounted to 63%. Besides, the “% Accumulation of intracellular lipids” value in assay [1] is 43%. As for “Ac-L-Ser-L-Val-L-Tyr-L-Val-Gly-L-Val-NH2 (Ac-SVYVGV-NH2) [Ac-SEQ ID NO. 44-NH2]”, the “Activity of the PGC-1α promoter (%)” value in the assay with human PGC-1α promoter is 67%. The same measure, in the same setting: the same measure for “Ac-L-His-L-Ile-L-Tyr-L-Val-L-Ala-L-Val-NH2 (Ac-HIYVAV-NH2) [Ac-SEQ ID NO. 25-NH2]”: 76%; for “Ac-L-Ser-L-Val-L-Val-L-Val-Gly-L-Thr-NH2 (Ac-SVVVGT-NH2) [Ac-SEQ ID NO. 24-NH2]”: 90%. Still for that read-out and setting: next, “Ac-L-His-L-Ile-L-Val-L-Val-L-Ala-L-Val-NH2 (Ac-HIVVAV-NH2) [Ac-SEQ ID NO. 29-NH2]”: 81%. Consider “Ac-L-Ser-L-Val-L-Tyr-L-Val-L-Arg-L-Val-NH2 (Ac-SVYVRV-NH2) [Ac-SEQ ID NO. 36-NH2]”, for which, in the assay on human PGC-1α promoter, the “Activity of the PGC-1α promoter (%)” value turned out to be 136%. Turning to “Ac-L-His-L-Ile-L-Tyr-L-Val-L-Arg-L-Thr-NH2 (Ac-HIYVRT-NH2) [Ac-SEQ ID NO. 10-NH2]”, the “Activity of the PGC-1α promoter (%)” value with human PGC-1α promoter is 115%. Consider “Ac-L-His-L-Val-L-Tyr-L-Val-L-Ala-L-Val-NH2 (Ac-HVYVAV-NH2) [Ac-SEQ ID NO. 27-NH2]”, for which the “Activity of the PGC-1α promoter (%)” value in the assay with human PGC-1α promoter is listed as 42%. For the substance “Ac-L-His-L-Val-L-Val-L-Val-L-Ala-L-Thr-NH2 (Ac-HVVVAT-NH2) [Ac-SEQ ID NO. 8-NH2]”, the “Activity of the PGC-1α promoter (%)” value in the assay with human PGC-1α promoter amounted to 89%. “Ac-L-Ser-L-Ile-L-Val-L-Val-L-Ala-L-Val-NH2 (Ac-SIVVAV-NH2) [Ac-SEQ ID NO. 30-NH2]”: in the assay with human PGC-1α promoter, the “Activity of the PGC-1α promoter (%)” value was 120%. As for “Ac-L-His-L-Val-L-Tyr-L-Val-L-Ala-L-Thr-NH2 (Ac-HVYVAT-NH2) [Ac-SEQ ID NO. 4-NH2]”, the “Activity of the PGC-1α promoter (%)” value in the assay with human PGC-1α promoter is on record as 77%. As to “Ac-L-His-L-Val-L-Tyr-L-Val-L-Arg-L-Thr-NH2 (Ac-HVYVRT-NH2) [Ac-SEQ ID NO. 12-NH2]”, in the assay with human PGC-1α promoter, the “Activity of the PGC-1α promoter (%)” value was found to be 114%. Further, the “% Accumulation of intracellular lipids” value in assay [1] was 84%.

With “Ac-L-Ser-L-Ile-L-Val-L-Val-L-Ala-L-Thr-NH2 (Ac-SIVVAT-NH2) [Ac-SEQ ID NO. 7-NH2]”, the “Activity of the PGC-1α promoter (%)” value with human PGC-1α promoter is listed as 145%. Take “Ac-L-His-L-Ile-L-Val-L-Val-Gly-L-Thr-NH2 (Ac-HIVVGT-NH2) [Ac-SEQ ID NO. 21-NH2]”: the “Activity of the PGC-1α promoter (%)” value in the assay with human PGC-1α promoter is 110%. Besides, the “% Accumulation of intracellular lipids” value in assay [1] is recorded as 114%.

With “Ac-L-His-L-Val-L-Val-L-Val-L-Arg-L-Val-NH2 (Ac-HVVVRV-NH2) [Ac-SEQ ID NO. 39-NH2]”, the “Activity of the PGC-1α promoter (%)” value with human PGC-1α promoter worked out at 186%.

Take “Ac-L-Ser-L-Ile-L-Tyr-L-Val-L-Arg-L-Val-NH2 (Ac-SIYVRV-NH2) [Ac-SEQ ID NO. 34-NH2]”: the “Activity of the PGC-1α promoter (%)” value in the assay on human PGC-1α promoter turned out to be 134%. The same measure, in the same setting: the same measure for “Ac-L-His-L-Ile-L-Tyr-L-Val-L-Arg-L-Val-NH2 (Ac-HIYVRV-NH2) [Ac-SEQ ID NO. 33-NH2]”: 117%. On to “Ac-L-Ser-L-Val-L-Tyr-L-Val-Gly-L-Thr-NH2 (Ac-SVYVGT-NH2) [Ac-SEQ ID NO. 20-NH2]”, for which the “Activity of the PGC-1α promoter (%)” value in the assay with human PGC-1α promoter came out at 76%.

Consider “Ac-L-Ser-L-Val-L-Val-L-Val-L-Ala-L-Thr-NH2 (Ac-SVVVAT-NH2) [Ac-SEQ ID NO. 9-NH2]”, for which the “Activity of the PGC-1α promoter (%)” value in the assay with human PGC-1α promoter is 62%. Regarding “Ac-L-Ser-L-Ile-L-Tyr-L-Val-Gly-L-Thr-NH2 (Ac-SIYVGT-NH2) [Ac-SEQ ID NO. 18-NH2]”, the “Activity of the PGC-1α promoter (%)” value with human PGC-1α promoter is reported as 64%.

Regarding “Ac-L-His-L-Ile-L-Val-L-Val-L-Arg-L-Val-NH2 (Ac-HIVVRV-NH2) [Ac-SEQ ID NO. 37-NH2]”, the “Activity of the PGC-1α promoter (%)” value in the assay on human PGC-1α promoter is on record as 118%. On the same count and under the same terms, the same measure for “Ac-L-His-L-Val-L-Tyr-L-Val-Gly-L-Val-NH2 (Ac-HVYVGV-NH2) [Ac-SEQ ID NO. 43-NH2]”: 75%.

Take “Ac-L-Ser-L-Ile-L-Tyr-L-Val-L-Arg-L-Thr-NH2 (Ac-SIYVRT-NH2) [Ac-SEQ ID NO. 11-NH2]”: the “Activity of the PGC-1α promoter (%)” value in the assay on human PGC-1α promoter worked out at 151%. The “% Accumulation of intracellular lipids” value in assay [1] was 76%.

“Ac-L-Ser-L-Val-L-Tyr-L-Val-L-Ala-L-Thr-NH2 (Ac-SVYVAT-NH2) [Ac-SEQ ID NO. 5-NH2]”: in the assay with human PGC-1α promoter, the “Activity of the PGC-1α promoter (%)” value amounted to 69%. Moreover, the “% Accumulation of intracellular lipids” value in assay [1] was determined as 48%. Turning to “Ac-L-Ser-L-Val-L-Val-L-Val-Gly-L-Val-NH2 (Ac-SVVVGV-NH2) [Ac-SEQ ID NO. 48-NH2]”, the “Activity of the PGC-1α promoter (%)” value in the assay with human PGC-1α promoter worked out at 75%. In addition, in assay [1], the “% Accumulation of intracellular lipids” value was 37%. In the case of “Ac-L-His-L-Val-L-Tyr-L-Val-L-Arg-L-Val-NH2 (Ac-HVYVRV-NH2) [Ac-SEQ ID NO. 35-NH2]”, the “Activity of the PGC-1α promoter (%)” value in the assay on human PGC-1α promoter is recorded as 132%. Turning to “Ac-L-Ser-L-Ile-L-Val-L-Val-L-Arg-L-Val-NH2 (Ac-SIVVRV-NH2) [Ac-SEQ ID NO. 38-NH2]”, the “Activity of the PGC-1α promoter (%)” value in the assay with human PGC-1α promoter turned out to be 180%. Still for that read-out and setting: next, “Ac-L-Ser-L-Ile-L-Tyr-L-Val-L-Ala-L-Val-NH2 (Ac-SIYVAV-NH2) [Ac-SEQ ID NO. 26-NH2]”: 40%; “Ac-L-Ser-L-Ile-L-Tyr-L-Val-Gly-L-Val-NH2 (Ac-SIYVGV-NH2) [Ac-SEQ ID NO. 42-NH2]”: 64%.
